Results published in ChEMBL document CHEMBL1133279, “Aminoalkyl adenylate and aminoacyl sulfamate intermediate analogues differing greatly in affinity for their cognate Staphylococcus aureus aminoacyl tRNA synthetases” (Bioorg Med Chem Lett, 2000).

Legend:
[1] = tested on: Histidyl-tRNA synthetase (Staphylococcus aureus); assay: Inhibitory activity against cognate Staphylococcus aureus Histidyl-tRNA synthetase at 300 uM
[2] = tested on: Threonyl-tRNA synthetase (Staphylococcus aureus); assay: Inhibitory activity against cognate Staphylococcus aureus threonyl tRNA synthetase at 300 uM

SMILES: Nc1ncnc2c1ncn2[C@@H]1O[C@H](COP(=O)(O)OC[C@@H](N)Cc2c[nH]cn2)[C@@H](O)[C@H]1O
- inhibition [1]: 20%

SMILES: C[C@@H](O)[C@H](N)COP(=O)(O)OC[C@H]1O[C@@H](n2cnc3c(N)ncnc32)[C@H](O)[C@@H]1O
- inhibition [2]: 60%
